From patent US20230019280A1, “SUBSTITUTED ISOINDOLONYL 2,2'-BIP[…], ANALOGUES THEREOF, AND METHODS USING SAME” (priority 2019, published 2023)

Tested on: HBsAg
Assay: HBsAg assay (inhibition of HBsAg in HepG2.2.15 cells)
Assay type: cell-based, hepatitis B virus
Details: Hepatitis B virus, HepG2.2.15, 144 h, read-out: sAg EC50, HepG2.2.15 cells; supernatant HBsAg by CLIA at day 6 after exposure of compounds
Description: Inhibition of HBsAg was determined in HepG2.2.15 cells. Cells were maintained in culture medium containing 10% fetal calf serum, […], Glutamine, penicillin/streptomycin. Cells were seeded in 96-well collagen-coated plate at a density of 30,000 cells/well. Serially diluted compounds were added to cells next day at the final DMSO concentration of 0.5%. Cells were incubated with compounds for 2-3 days, after which medium was removed. Fresh medium containing compounds was added to cells for additional 3-4 days. At day 6 after exposure of compounds, supernatant was collected, the HBsAg immunoassay (microplate-based chemiluminescence immunoassay kits, CLIA, Autobio Diagnosics Co., Zhengzhou, China, Catalog #CL0310-2) was used to determine the level of HBsAg according to manufactory instruction. Dose-response curves were generated and the EC50 value (effective concentrations that achieved 50% inhibitory effect) were determined using XLfit software. In addition, cells were seeded at a density of 5,000 cells/well for determination of cell viability in the presence and absence of compounds by using CellTiter-Glo reagent (Promega).

Question: Which EC50 does the source give for `COc1cc2c(cc1OC)C(C1CCC1)N(c1ccnc(-c3ncccn3)n1)C2=O` (stereo not drawn) [Example 28, 2-([2,2′-Bipyrimidin]-4-yl)-3-cyclobutyl-5,6-dimethoxyisoindolin-1-one] here?
Answer: The EC50 was 2 nM.

Question: How did the EC50 turn out when `CCC1c2cc(F)c(OC)cc2C(=O)N1c1nc(-c2ncccn2)ncc1OC` (stereo not drawn) [Example 25, 3-Ethyl-5-fluoro-6-methoxy-2-(5-methoxy-[2,2′-bipyrimidin]-4-yl)isoindolin-1-one] was run?
Answer: The EC50 was 10000 nM.

Question: `CCC1c2cc(OC)c(OC)cc2C(=O)N1c1cc(-c2ncccn2)ncn1` (stereo not drawn) [Example 37, 2-([2,4′-Bipyrimidin]-6′-yl)-3-ethyl-5,6-dimethoxyisoindolin-1-one] was tested. Which EC50 did it give?
Answer: Its EC50 is 290 nM.

Question: `CCC1c2cc(OC)c(OC)cc2C(=O)N1c1cnc(-c2ncccn2)nc1` (stereo not drawn) [Example 30, 3-Ethyl-5,6-dimethoxy-2-(2-pyrimidin-2-ylpyrimidin-5-yl)isoindolin-1-one] was tested. Which EC50 did it give?
Answer: Its EC50 is 48000 nM.

Question: How did the EC50 turn out when `CCC1c2cc(OC)c(OC)cc2C(=O)N1c1ccnc(-c2ncccn2)c1` (stereo not drawn) [Example 32, 3-Ethyl-5,6-dimethoxy-2-(2-(pyrimidin-2-yl)pyridin-4-yl)isoindolin-1-one] was run?
Answer: The EC50 was 20 nM.

Question: `CCC1c2cc(OC)c(OC)cc2C(=O)N1c1cncc(-c2ncccn2)n1` (stereo not drawn) [Example 35, 3-Ethyl-5,6-dimethoxy-2-(6-(pyrimidin-2-yl)pyrazin-2-yl)isoindolin-1-one] was tested. Which EC50 did it give?
Answer: The EC50 was 1000 nM.

Question: How did the EC50 turn out when `CCC1c2cc(F)c(OC)cc2C(=O)N1c1ccnc(-c2ncccn2)n1` (stereo not drawn) [Example 48, 2-([2,2′-Bipyrimidin]-4-yl)-3-ethyl-5-fluoro-6-methoxyisoindolin-1-one] was run?
Answer: The EC50 was 20 nM.

Question: With `CCOc1cc2c(cc1F)C(CC)N(c1nc(-c3ncccn3)ncc1F)C2=O` (single isomer, unassigned) [Example 56, 6-Ethoxy-3-ethyl-5-fluoro-2-(5-fluoro-[2,2′-bipyrimidin]-4-yl)isoindolin-1-one] as the molecule, how does the EC50 read?
Answer: The EC50 was 70 nM.

Question: For `CCC1c2cc(F)c(F)cc2C(=O)N1c1cnc(-c2ncccn2)nc1` (single isomer, unassigned) [Example 59, 2-([2,2′-Bipyrimidin]-5-yl)-3-ethyl-5,6-difluoroisoindolin-1-one], which EC50 is on record?
Answer: The EC50 was 10000 nM.

Question: With `COc1cc2c(cc1OC)C(c1sccc1C)N(c1ccnc(-c3ncccn3)n1)C2=O` (stereo not drawn) [Example 27, 2-([2,2′-Bipyrimidin]-4-yl)-5,6-dimethoxy-3-(3-methylthiophen-2-yl)isoindo-lin-1-one] as the molecule, how does the EC50 read?
Answer: Its EC50 is 1 nM.

Question: With `CCC1c2cc(OC)c(OC)cc2C(=O)N1c1nc(-c2ncccn2)nc(C)c1C` (stereo not drawn) [Example 24, 2-(5,6-Dimethyl-[2,2′-bipyrimidin]-4-yl)-3-ethyl-5,6-dimethoxyisoindolin-1-one] as the molecule, how does the EC50 read?
Answer: Its EC50 is 10000 nM.

Question: Which EC50 does the source give for `CCCC1c2cc(F)c(OC)cc2C(=O)N1c1nc(-c2ncccn2)ncc1F` (single isomer, unassigned) [Example 58, 5-Fluoro-2-(5-fluoro-[2,2′-bipyrimidin]-4-yl)-6-methoxy-3-propylisoindolin-1-one] here?
Answer: Its EC50 is 20 nM.

Question: How did the EC50 turn out when `COc1cc2c(cc1OC)C(C(C)(C)C)N(c1ccnc(-c3ncccn3)n1)C2=O` (stereo not drawn) [Example 45, 2-([2,2′-Bipyrimidin]-4-yl)-3-(tert-butyl)-5,6-dimethoxyisoindolin-1-one] was run?
Answer: Its EC50 is 3 nM.

Question: Which EC50 does the source give for `O=C1c2c(F)cc(F)cc2CN1c1ccnc(-c2ncccn2)n1` [Example 60, 2-([2,2′-Bipyrimidin]-4-yl)-5,7-difluoroisoindolin-1-one] here?
Answer: Its EC50 is 850 nM.

Question: `O=C1c2cc(F)cc(F)c2CCN1c1ccnc(-c2ncccn2)n1` [Example 64, 2-([2,2′-Bipyrimidin]-4-yl)-5,7-difluoro-3,4-dihydroisoquinolin-1(2H)-one] was tested. Which EC50 did it give?
Answer: The EC50 was 5000 nM.

Question: With `COc1cc2c(cc1OC)C1(CC1)N(c1ccnc(-c3ncccn3)n1)C2=O` [Example 46, 2′-([2,2′-Bipyrimidin]-4-yl)-5′,6′-dimethoxyspiro[cyclopropane-1,1′-isoindolin]-3′-one] as the molecule, how does the EC50 read?
Answer: Its EC50 is 240 nM.

Same assay, conditions: read-out: sAg EC50; HepG2.2.15 cells; supernatant HBsAg by CLIA at day 6 after exposure of compounds

Question: With `COc1cc2c(cc1OC)C(c1ccccn1)N(c1ccnc(-c3ncccn3)n1)C2=O` (single isomer, unassigned) [Example 22, 2-([2,2′-Bipyrimidin]-4-yl)-5,6-dimethoxy-3-(pyridin-2-yl)isoindolin-1-one] as the molecule, how does the EC50 read?
Answer: The EC50 was 4 nM.

Question: Which EC50 does the source give for `COCCC1c2cc(F)c(OC)cc2C(=O)N1c1ccnc(-c2ncccn2)n1` (single isomer, unassigned) [Example 53, 2-([2,2′-Bipyrimidin]-4-yl)-5-fluoro-6-methoxy-3-(2-methoxyethyl)isoindolin-1-one] here?
Answer: Its EC50 is 38 nM.

Question: With `CCC1c2cc(F)c(OC)cc2C(=O)N1c1ccnc(-c2ncccn2)n1` (single isomer, unassigned) [Example 49, 3-Ethyl-5-fluoro-6-methoxy-2-(2-pyrimidin-2-ylpyrimidin-4-yl)isoindolin-1-one] as the molecule, how does the EC50 read?
Answer: The EC50 was 10 nM.

Question: Which EC50 does the source give for `CCC1c2cc(F)c(OC)cc2C(=O)N1c1nc(-c2ncccn2)ncc1F` (single isomer, unassigned) [Example 55, 3-Ethyl-5-fluoro-2-(5-fluoro-2-pyrimidin-2-yl-pyrimidin-4-yl)-6-methoxy-isoindolin-1-one] here?
Answer: The EC50 was 50 nM.

Question: How did the EC50 turn out when `CCC1c2c(F)cc(Cl)cc2C(=O)N1c1ccnc(-c2ncccn2)n1` (single isomer, unassigned) [Example 9, 2-([2,2′-Bipyrimidin]-4-yl)-6-chloro-3-ethyl-4-fluoroisoindolin-1-one] was run?
Answer: The EC50 was 5000 nM.

Question: Which EC50 does the source give for `CCC1c2cc(OC)c(Cl)cc2C(=O)N1c1ccnc(-c2ncccn2)n1` (single isomer, unassigned) [Example 6, 2-([2,2′-Bipyrimidin]-4-yl)-6-chloro-3-ethyl-5-methoxyisoindolin-1-one] here?
Answer: Its EC50 is 14 nM.

Question: How did the EC50 turn out when `COc1cc2c(cc1OC)C(c1ccccc1)N(c1nc(-c3ncccn3)ncc1F)C2=O` (single isomer, unassigned) [Example 70, 2-(5-Fluoro-[2,2′-bipyrimidin]-4-yl)-5,6-dimethoxy-3-phenylisoindolin-1-one] was run?
Answer: Its EC50 is 1 nM.

Question: Which EC50 does the source give for `CCC1c2c(F)cc(Cl)cc2C(=O)N1c1ccnc(-c2ncccn2)n1` (single isomer, unassigned) [Example 8, 2-([2,2′-Bipyrimidin]-4-yl)-6-chloro-3-ethyl-4-fluoroisoindolin-1-one] here?
Answer: Its EC50 is 10 nM.

Question: `CCC1c2cc(Cl)cc(F)c2C(=O)N1c1ccnc(-c2ncccn2)n1` (single isomer, unassigned) [Example 20, 2-([2,2′-Bipyrimidin]-4-yl)-5-chloro-3-ethyl-7-fluoroisoindolin-1-one] was tested. Which EC50 did it give?
Answer: Its EC50 is 45 nM.

Question: For `CCC1c2cc(OC)c(Cl)cc2C(=O)N1c1ccnc(-c2ncccn2)n1` (single isomer, unassigned) [Example 7, 2-([2,2′-Bipyrimidin]-4-yl)-6-chloro-3-ethyl-5-methoxyisoindolin-1-one], which EC50 is on record?
Answer: Its EC50 is 8000 nM.

Question: `CCC1c2cc(OC)c(OC)cc2C(=O)N1c1ccnc(-c2ncccn2)n1` (single isomer, unassigned) [Example 3, 2-([2,2′-Bipyrimidin]-4-yl)-3-ethyl-5,6-dimethoxyisoindolin-1-one] was tested. Which EC50 did it give?
Answer: The EC50 was 1000 nM.

Question: Which EC50 does the source give for `COc1cc2c(cc1OC)C(c1ccccc1)N(c1ccnc(-c3ncccn3)n1)C2=O` (single isomer, unassigned) [Example 44, 2-([2,2′-Bipyrimidin]-4-yl)-5,6-dimethoxy-3-phenylisoindolin-1-one] here?
Answer: The EC50 was 160 nM.

Question: With `COc1cc2c(cc1OC)C(c1ccccn1)N(c1ccnc(-c3ncccn3)n1)C2=O` (single isomer, unassigned) [Example 23, 2-([2,2′-Bipyrimidin]-4-yl)-5,6-dimethoxy-3-(pyridin-2-yl)isoindolin-1-one] as the molecule, how does the EC50 read?
Answer: Its EC50 is 500 nM.

Question: With `CCC1c2cc(OC)c(C)cc2C(=O)N1c1ccnc(-c2ncccn2)n1` (single isomer, unassigned) [Example 4, 2-([2,2′-Bipyrimidin]-4-yl)-3-ethyl-5-methoxy-6-methylisoindolin-1-one] as the molecule, how does the EC50 read?
Answer: Its EC50 is 8 nM.

Question: Which EC50 does the source give for `COc1cc2c(cc1OC)C(c1ccc(C)nc1)N(c1ccnc(-c3ncccn3)n1)C2=O` (single isomer, unassigned) [Example 18, 2-([2,2′-Bipyrimidin]-4-yl)-5,6-dimethoxy-3-(6-methylpyridin-3-yl)isoindolin-1-one] here?
Answer: Its EC50 is 10 nM.

Question: How did the EC50 turn out when `COc1ccc(C2c3cc(OC)c(OC)cc3C(=O)N2c2ccnc(-c3ncccn3)n2)cc1` (single isomer, unassigned) [Example 11, 2-([2,2′-Bipyrimidin]-4-yl)-5,6-dimethoxy-3-(4-methoxyphenyl)isoindolin-1-one] was run?
Answer: The EC50 was 4000 nM.

Question: `CCC1c2cc(OC)c(F)cc2C(=O)N1c1ccnc(-c2ncccn2)n1` (single isomer, unassigned) [Example 51, 2-([2,2′-Bipyrimidin]-4-yl)-3-ethyl-6-fluoro-5-methoxyisoindolin-1-one] was tested. Which EC50 did it give?
Answer: The EC50 was 130 nM.

Question: `CCC1c2cc(F)c(OC)cc2C(=O)N1c1nc(-c2ncccn2)ncc1F` (single isomer, unassigned) [Example 74, 3-Ethyl-5-fluoro-2-(5-fluoro-[2,2′-bipyrimidin]-4-yl)-6-methoxyisoindolin-1-one] was tested. Which EC50 did it give?
Answer: Its EC50 is 300 nM.

Question: For `CCC1c2cc(OC)c(OC)cc2C(=O)N1c1nc(-c2ncccn2)ncc1F` (single isomer, unassigned) [Example 67, 3-Ethyl-2-(5-fluoro-[2,2′-bipyrimidin]-4-yl)-5,6-dimethoxyisoindolin-1-one], which EC50 is on record?
Answer: The EC50 was 10000 nM.

Question: For `CCC1c2cc(OC)c(OC)cc2C(=O)N1c1cc(F)nc(-c2ncccn2)n1` (single isomer, unassigned) [Example 68, 3-Ethyl-2-(6-fluoro-[2,2′-bipyrimidin]-4-yl)-5,6-dimethoxyisoindolin-1-one], which EC50 is on record?
Answer: Its EC50 is 1000 nM.
